{
  "source": "patent US20230151434A1",
  "about": "“REAWAKENING OF DORMANT TUMOR CELLS BY MODIFIED LIPIDS DERIVED FROM STRESS ACTIVATED NEUTROPHILS” (The Wistar Institute of Anatomy and Biology, priority 2020, published 2023)",
  "key": {"[1]": {"tested_on": "PMN", "assay": "S100A8/A9 release by PMN measured by ELISA", "assay_type": "cell-based, mouse", "settings": "PMN treated with NE with or without ICI-118,551", "procedure": "PMN or PMN-MDSC were isolated from spleen of tumor-free mice or LLC tumor-bearing mice, respectively. A total of 5×10^5 LLC cells were injected into the right flank of mice, and spleens were harvested when tumors reached 200 mm^2. Spleens were mechanically dissociated. Red blood cells were lysed with ACK buffer cells. Splenocytes were stained with mouse biotin-conjugated Ly6G antibody (Miltenyi Biotec) followed by biotin microbeads. Ly6G+ cells were purified by magnetic separation with MACS column for magnetic cell isolation, according to the manufacturer's instructions (Miltenyi Biotec).\nOne hundred microliters of mouse peripheral blood was collected from facial vein. NE was measured by a mouse NE ELISA Kit (Novus Biologicals). S100A8/A9 was measured by Mouse S100A8/S100A9 Heterodimer DuoSet ELISA (R&D Systems). S100A8/A9 concentrations in human serum samples were determined by using a double-sandwich ELISA system as previously described (64), which is different from commercial ELISA kits. Human NE was measured using an ELISA kit (Abnova)."}, "[2]": {"tested_on": "KPr^p53A cells", "assay": "In vivo stress induction, NOD/SCID mice injected with KPr^p53A cells and PMN", "parameters": "species or system mouse", "excerpt": "A total of 2.5×10^4 KPr^p53A cells were intravenously injected to NOD/SCID mice. Beginning 3 weeks after injection, mice were imaged weekly. Luciferin (PerkinElmer) was intraperitoneally injected in mice before imaging according to the manufacturer's instruction. Mice were imaged with IVIS Spectrum In Vivo Imaging System (IVIS, PerkinElmer) to detect luminescent signal coming from growing cancer cells. Mice were put under anesthesia in the induction chamber with isoflurane vaporizer set to 2.5%, at a flow rate of ˜1.5 liters/min. Mice were then transferred in the IVIS imaging stage nose cone inside the IVIS manifold (IVIS manifold nose cones flow set to ˜0.25 LPM). Animals were monitored by video during imaging. Once the images of luciferase/luciferin activity were acquired, the anesthesia was turned off and the animals were returned to their cages. […] Analysis and quantification were performed with IVIS imaging system Living Image Software 4.7.4 (PerkinElmer). […] When signal was detected, mice were sacrificed, and bioluminescent images of the harvested lung were taken. […] If no bioluminescence was detected in lungs after 80 days from last PMN injection, experiments were terminated, and lung tissue were collected. […] Bioluminescence was not detected in any LL2^CisA-injected mice at 3 weeks after injection. Mice were treated with PMN or PMN-MDSC and analyzed as described above. […]"}},
  "data": [
    {"molecule": "Cc1ccc(OCC(O)C(C)NC(C)C)c2c1CCC2", "note": "(stereo not drawn) [ICI-118,551]", "values": [
      {"measurement": "NE-mediated secretion of S100A8/A9 by PMN", "setting": "[1]", "value": "abrogated the NE-mediated secretion of S100A8/A9 by PMN"},
      {"measurement": "growth of KPr^p53A cells in lung and liver of stressed mice injected with PMN", "setting": "[2]; 1 mg/kg i.p. daily during stress induction", "value": "abrogated this effect"},
      {"measurement": "survival of stressed tumor-bearing mice", "setting": "[2]; humane end-points, n=10 per group", "value": "markedly improved survival"}
    ]}
  ]
}
